Data as given in publication PMC5632727, “Boeravinone B, A Novel Dual Inhibitor of NorA Bacterial Efflux Pump of Staphylococcus aureus and Human P-Glycoprotein, Reduces the Biofilm Formation and Intracellular Invasion of Bacteria” (Frontiers in Microbiology, 2017).
Like-named read-outs stand apart in the source and are kept apart here.

Columns and labels:
Format in all cases: cell-based
[1] = biological target: T1, NorA multidrug efflux pump (Staphylococcus aureus, UniProt Q03325); assay: ethidium bromide efflux and accumulation in NorA-overexpressing SA-1199B cells; no effect in norA knockout SA-K1758
T1 construct: gene norA1199

[2] = biological target: T1, NorA multidrug efflux pump; assay: fluorescent efflux and accumulation in NorA-overexpressing, wild-type and knockout S. aureus cells
[3] = biological target: T1, NorA multidrug efflux pump

T1 sequence (Q03325 entry or part of it): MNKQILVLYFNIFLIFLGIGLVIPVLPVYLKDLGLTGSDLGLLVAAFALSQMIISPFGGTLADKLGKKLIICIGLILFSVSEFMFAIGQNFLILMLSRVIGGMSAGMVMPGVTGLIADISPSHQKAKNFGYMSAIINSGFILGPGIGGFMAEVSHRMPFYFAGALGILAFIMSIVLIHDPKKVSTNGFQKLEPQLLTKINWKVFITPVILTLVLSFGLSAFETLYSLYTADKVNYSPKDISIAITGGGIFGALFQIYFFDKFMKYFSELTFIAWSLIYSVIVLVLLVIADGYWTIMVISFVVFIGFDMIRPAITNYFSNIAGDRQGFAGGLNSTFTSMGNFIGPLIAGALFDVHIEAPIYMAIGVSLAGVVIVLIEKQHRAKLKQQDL

Structure (SMILES): Cc1c(O)cc2oc3c(c(=O)c2c1O)-c1ccccc1OC3O (stereo not drawn) [boeravinone B, 6,9,11-trihydroxy-10-methylchromeno[3,4-b]chromen-12(6H)-one]
- ethidium bromide efflux and accumulation in NorA-overexpressing SA-1199B cells; [1]: in cells treated with boeravinone B, the efflux of ethidium bromide was prevented, resulting in the prolonged retention of fluorescence

Structure (SMILES): CC[n+]1c(-c2ccccc2)c2cc(N)ccc2c2ccc(N)cc21 [ethidium bromide]
- fluorescent efflux and accumulation in NorA-overexpressing, wild-type and knocko [2]: a rapid decrease occurred in the fluorescence because of the NorA-mediated efflux of ethidium bromide

Structure (SMILES): COC(=O)[C@H]1[C@H]2C[C@@H]3c4[nH]c5cc(OC)ccc5c4CCN3C[C@H]2C[C@@H](OC(=O)c2cc(OC)c(OC)c(OC)c2)[C@@H]1OC [reserpine]
- ethidium bromide efflux and accumulation in NorA-overexpressing SA-1199B cells; [3]: Reserpine, a known efflux pump inhibitor, was used as the positive control in both studies.
